Converted amounts (≈) assume the structure as drawn.
Legend:
Assay type in all cases: functional
[1] = tested on: Klebsiella pneumoniae; assay: Antimicrobial activity against Klebsiella pneumoniae AH24-270 expressing blaCTX-M-71 gene by agar dilution method
[2] = tested on: Escherichia coli; assay: Antimicrobial activity against Escherichia coli K-12 transconjugant harboring blaCTX-M-71 gene by agar dilution method
[3] = tested on: Escherichia coli; assay: Antimicrobial activity against Escherichia coli K-12 by agar dilution method
[4] = tested on: Escherichia coli; assay: Antimicrobial activity against Escherichia coli DH5[alpha] harboring pBC-CTX-M-71 plasmid by agar dilution method
[5] = tested on: Escherichia coli; assay: Antimicrobial activity against Escherichia coli DH5[alpha] harboring pBC-CTX-M-15 plasmid by agar dilution method
[6] = tested on: Escherichia coli; assay: Antimicrobial activity against Escherichia coli DH5[alpha] by agar dilution method
[7] = tested on: Klebsiella pneumoniae; assay: Antimicrobial activity against Klebsiella pneumoniae AH24-270 expressing blaCTX-M-71 gene by agar dilution method in presence of beta-lactamase inhibitor clavulanic acid
[8] = tested on: Escherichia coli; assay: Antimicrobial activity against Escherichia coli K-12 transconjugant harboring blaCTX-M-71 gene by agar dilution method in presence of beta-lactamase inhibitor clavulanic acid
[9] = tested on: Escherichia coli; assay: Antimicrobial activity against Escherichia coli K-12 by agar dilution method in presence of beta-lactamase inhibitor clavulanic acid
[10] = tested on: Escherichia coli; assay: Antimicrobial activity against Escherichia coli DH5alpha harboring pBC-CTX-M-71 plasmid by agar dilution method in presence of beta-lactamase inhibitor clavulanic acid; conditions: DH5[alpha]
[11] = tested on: Escherichia coli; assay: Antimicrobial activity against Escherichia coli DH5alpha harboring pBC-CTX-M-15 plasmid by agar dilution method in presence of beta-lactamase inhibitor clavulanic acid; conditions: DH5[alpha]
[12] = tested on: Escherichia coli; assay: Antimicrobial activity against Escherichia coli DH5alpha by agar dilution method in presence of beta-lactamase inhibitor clavulanic acid; conditions: DH5[alpha]
[13] = tested on: Klebsiella pneumoniae; assay: Antimicrobial activity against Klebsiella pneumoniae AH24-270 expressing blaCTX-M-71 gene by agar dilution method in presence of beta-lactamase inhibitor Tazobactam
[14] = tested on: Escherichia coli; assay: Antimicrobial activity against Escherichia coli K-12 transconjugant harboring blaCTX-M-71 gene by agar dilution method in presence of beta-lactamase inhibitor Tazobactam
[15] = tested on: Escherichia coli; assay: Antimicrobial activity against Escherichia coli K-12 by agar dilution method in presence of beta-lactamase inhibitor Tazobactam
[16] = tested on: Escherichia coli; assay: Antimicrobial activity against Escherichia coli DH5alpha harboring pBC-CTX-M-71 plasmid by agar dilution method in presence of beta-lactamase inhibitor Tazobactam; conditions: DH5[alpha]
[17] = tested on: Escherichia coli; assay: Antimicrobial activity against Escherichia coli DH5alpha harboring pBC-CTX-M-15 plasmid by agar dilution method in presence of beta-lactamase inhibitor Tazobactam; conditions: DH5[alpha]
[18] = tested on: Escherichia coli; assay: Antimicrobial activity against Escherichia coli DH5alpha by agar dilution method in presence of beta-lactamase inhibitor Tazobactam; conditions: DH5[alpha]

SMILES | MIC [1] [µg/mL] | MIC [2] [µg/mL] | MIC [3] [µg/mL] | MIC [4] [µg/mL] | MIC [5] [µg/mL] | MIC [6] [µg/mL] | MIC [7] [µg/mL] | MIC [8] [µg/mL] | MIC [9] [µg/mL] | MIC [10] [µg/mL] | MIC [11] [µg/mL] | MIC [12] [µg/mL] | MIC [13] [µg/mL] | MIC [14] [µg/mL] | MIC [15] [µg/mL] | MIC [16] [µg/mL] | MIC [17] [µg/mL] | MIC [18] [µg/mL]
CO/N=C(\C(=O)N[C@@H]1C(=O)N2C(C(=O)O)=C(COC(C)=O)CS[C@H]12)c1csc(N)n1 [CEFOTAXIME] | 64 (≈ 141 µM) | 4 (≈ 8.78 µM) | 0.03 (≈ 0.0659 µM) | 16 (≈ 35.1 µM) | > 256 | 0.03 (≈ 0.0659 µM) | 2 | 0.06 | 0.016 | 0.03 | 0.06 | 0.016 |  |  |  |  |  | 
CC1(C)S[C@@H]2[C@H](NC(=O)[C@H](N)c3ccc(O)cc3)C(=O)N2[C@H]1C(=O)O [AMOXICILLIN] | > 512 | > 512 | 2 (≈ 5.47 µM) | > 512 | > 512 | 4 (≈ 10.9 µM) | > 512 | 64 | 2 | 8 | 8 | 2 |  |  |  |  |  | 
C[C@H]1[C@H](NC(=O)/C(=N\OC(C)(C)C(=O)O)c2csc(N)n2)C(=O)N1S(=O)(=O)O [AZTREONAM] | 128 (≈ 294 µM) | 8 (≈ 18.4 µM) |  | 8 (≈ 18.4 µM) | 64 (≈ 147 µM) |  |  |  |  |  |  |  |  |  |  |  |  | 
CCN1CCN(C(=O)N[C@@H](C(=O)N[C@@H]2C(=O)N3[C@@H]2SC(C)(C)[C@@H]3C(=O)O)c2ccccc2)C(=O)C1=O [PIPERACILLIN] | > 256 | > 256 | 1 (≈ 1.93 µM) | 256 (≈ 495 µM) | > 256 | 2 (≈ 3.86 µM) |  |  |  |  |  |  | > 256 | 16 | 1 | 2 | 2 | 1
C[C@@H](O)[C@H]1C(=O)N2C(C(=O)O)=C(S[C@@H]3CN[C@H](C(=O)N(C)C)C3)[C@H](C)[C@H]12 [MEROPENEM] | 4 (≈ 10.4 µM) | 0.03 (≈ 0.0782 µM) | 0.03 (≈ 0.0782 µM) | 0.03 (≈ 0.0782 µM) | 0.03 (≈ 0.0782 µM) | 0.03 (≈ 0.0782 µM) | 0.5 | 0.016 | 0.016 | 0.03 | 0.03 | 0.03 |  |  |  |  |  | 
CO/N=C(\C(=O)N[C@@H]1C(=O)N2C(C(=O)[O-])=C(C[N+]3(C)CCCC3)CS[C@H]12)c1csc(N)n1 [CEFEPIME] | 128 (≈ 266 µM) |  | 0.016 (≈ 0.0333 µM) | 4 (≈ 8.32 µM) | 16 (≈ 33.3 µM) | 0.016 (≈ 0.0333 µM) |  |  |  |  |  |  |  |  |  |  |  | 
C[C@@H](O)[C@H]1C(=O)N2C(C(=O)O)=C(S[C@@H]3CN[C@H](C(=O)Nc4cccc(C(=O)O)c4)C3)[C@H](C)[C@H]12 [ERTAPENEM] | 3 (≈ 6.31 µM) | 0.016 (≈ 0.0336 µM) | 0.008 (≈ 0.0168 µM) | 0.016 (≈ 0.0336 µM) | 0.03 (≈ 0.0631 µM) | 0.016 (≈ 0.0336 µM) | 8 |  |  |  |  |  |  |  |  |  |  | 
CO[C@@]1(NC(=O)Cc2cccs2)C(=O)N2C(C(=O)O)=C(COC(N)=O)CS[C@@H]21 [CEFOXITIN] | 64 (≈ 150 µM) | 2 (≈ 4.68 µM) | 2 (≈ 4.68 µM) | 4 (≈ 9.36 µM) | 4 (≈ 9.36 µM) | 4 (≈ 9.36 µM) |  |  |  |  |  |  |  |  |  |  |  | 
C[C@@H](O)[C@H]1C(=O)N2C(C(=O)O)=C([C@H]3CCCO3)S[C@H]12 [FAROPENEM] | 4 (≈ 14 µM) | 1 (≈ 3.5 µM) | 0.5 (≈ 1.75 µM) | 0.5 (≈ 1.75 µM) | 1 (≈ 3.5 µM) | 0.5 (≈ 1.75 µM) | 4 | 0.5 | 0.5 | 0.5 | 0.5 | 0.25 |  |  |  |  |  | 
C[C@@H](O)[C@H]1C(=O)N2C(C(=O)O)=C(SCCNC=N)C[C@H]12 [IMIPENEM ANHYDROUS] | 1 (≈ 3.34 µM) |  |  |  |  |  | 0.5 |  | 0.13 | 0.25 |  |  |  |  |  |  |  | 
CO/N=C(\C(=O)N[C@@H]1C(=O)N2C(C(=O)O)=C(COC(N)=O)CS[C@H]12)c1ccco1 [CEFUROXIME] | > 512 | 256 (≈ 603 µM) | 2 (≈ 4.71 µM) | 512 (≈ 1210 µM) | > 512 | 4 (≈ 9.43 µM) |  |  |  |  |  |  |  |  |  |  |  | 
CC(C)(O/N=C(\C(=O)N[C@@H]1C(=O)N2C(C(=O)[O-])=C(C[n+]3ccccc3)CS[C@H]12)c1csc(N)n1)C(=O)O [CEFTAZIDIME] | 16 (≈ 29.3 µM) | 4 (≈ 7.32 µM) | 0.06 (≈ 0.11 µM) | 8 (≈ 14.6 µM) | 64 (≈ 117 µM) | 0.13 (≈ 0.238 µM) | 4 | 0.25 | 0.06 | 0.25 | 0.25 | 0.06 |  |  |  |  |  | 
